These are literature values, as cited in patent publication US20060287342A1, “Triazolopyrimidine heterocycles as cannabinoid receptor modulators” (priority 2005, published 2006).

Structures are written as SMILES.

For one series, the system named is human subjects. The conditions noted are these: 16 week trial period.
The conditions of series [1]: chronic administration for two weeks.

In the case of `Cc1c(C(=O)NN2CCCCC2)nn(-c2ccc(Cl)cc2Cl)c1-c1ccc(Cl)cc1` [SR-141716], in the series with human subjects, the body weight result was “dose-dependently reduced body weight”.
For `Cc1c(C(=O)NN2CCCCC2)nn(-c2ccc(Cl)cc2Cl)c1-c1ccc(I)cc1` [AM-251], in series [1], the body weight entry was “substantial body weight reduction”.
